US8133847B2, “Pyrido[2,3-B]pyrazine derivatives useful as herbicidal compounds” (Syngenta Limited, priority 2006, dated 2012)

Key:
Assay in all cases: Example B2 herbicidal action, post-emergence, pots in glasshouse
Type in all cases: in vivo
[1] = test system: Echinochloa crusgalli (ECHCG); details: Application post-emergence, evaluated after 13 days (100=total damage to plant; 0=no damage to plant)
Experimental: (§1) Seeds of a variety of test species were sown in standard soil in pots. After 8 days cultivation (post-emergence) under controlled conditions in a glasshouse (at 24/16° C., day/night; 14 hours light; 65% humidity), the plants were sprayed with an aqueous spray solution derived from the formulation of the technical active ingredient in acetone/water (50:50) solution containing 0.5% Tween 20 (polyoxyethylene sorbitan monolaurate, CAS RN 9005-64-5). The test plants were then grown in a glasshouse under controlled conditions in a glasshouse (at 24/16° C., day/night; 14 hours light; 65% humidity) and watered twice daily. After 13 days, the test was evaluated (100=total damage to plant; 0=no damage to plant).

Solanum nigrum (SOLNI) = details: Application post-emergence, evaluated after 13 days
Experimental: as §1

[2] = test system: Ipomea hederaceae (IPOHE); details: Application post-emergence, evaluated after 13 days (100=total damage to plant; 0=no damage to plant)
Experimental: as §1

Setaria faberi (SETFA) = details: Application post-emergence, evaluated after 13 days (100=total damage to plant; 0=no damage to plant)
Experimental: as §1

[3] = test system: Amaranthus retroflexus (AMARE); details: Application post-emergence, evaluated after 13 days (100=total damage to plant; 0=no damage to plant)
Experimental: as §1

| SMILES | damage to plant, Echinochloa crusgalli (ECHCG) [1] | damage to plant, Solanum nigrum (SOLNI) (Solanum nigrum (SOLNI)) | damage to plant, Ipomea hederaceae (IPOHE) [2] | damage to plant, Setaria faberi (SETFA) (Setaria faberi (SETFA)) | damage to plant, Amaranthus retroflexus (AMARE) [3] |
| --- | --- | --- | --- | --- | --- |
| CCn1c(=O)c(-c2c(Cl)cc(OC(F)(F)F)cc2Cl)c(O)c2nccnc21 [Compound D11] | 10 | 10 | 10 | 9 | 10 |
| Cn1c(=O)c(-c2c(Cl)cc(OC(F)(F)F)cc2Cl)c(OC(=O)C(C)(C)C)c2nccnc21 [Compound C138] | 2 | 8 | 8 | 4 | 8 |
| Cn1c(=O)c(-c2c(F)ccc(Cl)c2Cl)c(OC(=O)C(C)(C)C)c2nccnc21 [Compound C163] | 1 | 9 | 9 | 0 | 6 |
| CCn1c(=O)c(-c2c(Cl)cc(C(F)(F)F)cc2Cl)c(OC(=O)C(C)(C)C)c2nccnc21 [Compound C129] | 4 | 10 | 9 | 6 | 10 |
| CCn1c(=O)c(-c2c(F)ccc(Br)c2Cl)c(OC(=O)C(C)(C)C)c2nccnc21 [Compound C155] | 3 | 10 | 9 | 0 | 10 |
| O=c1[nH]c2nccnc2c(O)c1-c1cc(F)ccc1Cl [Compound A38] | 8 | 9 | 0 | 9 | 10 |
| O=c1[nH]c2nccnc2c(O)c1-c1ccccc1Br [Compound A24] | 4 | 9 | 6 | 6 | 10 |
| CCn1c(=O)c(-c2cc(OC(F)(F)F)ccc2OC)c(OC(=O)C(C)C)c2nccnc21 [Compound C160] | 8 | 9 | 7 | 6 | 10 |
| CC(C)(C)C(=O)Oc1c(-c2ccccc2Br)c(=O)[nH]c2nccnc12 [Compound B51] | 3 | 7 | 0 | 6 | 3 |
| CCn1c(=O)c(-c2ccc(C(F)(F)F)cc2Br)c(OC(=O)C(C)(C)C)c2nccnc21 [Compound C147] | 0 | 4 | 2 | 0 | 2 |
| O=c1[nH]c2nccnc2c(O)c1-c1c(Cl)cc(OC(F)(F)F)cc1Cl [Compound A36] | 10 | 8 | 0 | 8 | 7 |
| CCn1c(=O)c(-c2cc(C)ccc2C)c(OC(=O)C(C)(C)C)c2nccnc21 [Compound C135] | 2 | 10 | 0 | 0 | 8 |
| CC(C)C(=O)Oc1c(-c2ccccc2OC(F)F)c(=O)n(C)c2nccnc12 [Compound C164] | 3 | 8 | 8 | 4 | 9 |
| CCn1c(=O)c(-c2cc(F)c(Cl)cc2Cl)c(OC(=O)C(C)C)c2nccnc21 [Compound C152] | 4 | 9 | 6 | 2 | 10 |
| Cn1c(=O)c(-c2ccccc2Br)c(OC(=O)C(C)(C)C)c2nccnc21 [Compound C146] | 5 | 8 | 7 | 6 | 9 |
